Consider 14 compounds from US9266904B2, “6-bridged heteroaryldihydropyrimidines for the treatment and prophylaxis of hepatitis B virus infection” (priority 2013, dated 2016).

pEC50: −log10 of the molar value. ≈ marks a conversion by molar mass, not a printed value.

One data set concerns HBV. The conditions noted are these: HBV infected transgenic mouse or humanized mouse models; cited from earlier work.
Data set [1] relates to HBV replication in HepG2.2.15 cells. The experiment in a line: Anti-HBV activity in vitro in HepG2.2.15 cells (extracellular HBV DNA by qPCR). Type of data set: cell-based. The conditions noted are these: Hepatitis B virus, HepG2.2.15, Anti-HBV activity in HepG2.2.15 cells; read-out: EC50. The procedure, abridged:
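EC50 is derived from qPCR of extracellular viral DNA in culture supernatant after 5-day compound exposure. Cells (HepG2.2.15, stably carrying the HBV genome) were plated and incubated overnight at 37 °C before half-log dilution series were added at 0.5% final DMSO.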
For orientation: In qPCR the cycle at which signal appears reflects the starting amount.

Data set [2] is described as follows: Cytotoxicity (CCK-8 cell viability) and selectivity index. It is filed as cell-based, human. The conditions noted are these: human, HepDE19 cells; cytotoxicity, concentration resulting in death of 50% of host cells. The procedure, abridged: (§1)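 HepDE19 cells (5×10^3/well) were treated with compounds as for the EC50 runs and, after 5 days, given CCK-8 for 2 h at 37° C. Absorbance was read at OD450 and OD630, and CC50 was taken as the concentration killing 50% of host cells.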

In a further data set the test system is HepDE19 cells. Described as above. Type of data set: cell-based, human. Conditions: CC50 value/EC50 value. The procedure, abridged: as §1
Data set [3] is described as follows: Human microsomal clearance assay. It is filed as in vitro ADME. Conditions: human, 1 μM, pH 7.4. The procedure, abridged:
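Liver microsomes (0.5 mg/mL protein) were incubated with 1 μM compound at 37 °C, pH 7.4 phosphate, with an NADPH-regenerating system. Samples at 0-30 min were quenched and measured by LC-MS/MS for parent loss. No-NADPH controls were included.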

The nature of data set [4]: Lyophilisation solubility assay (Lysa). It is filed as physicochemical. The conditions noted are these: pH 6.5, aqueous buffer, thermodynamic from solid. The procedure, abridged: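 DMSO was evaporated from 10 mM stocks, and residues were taken up in 0.05 M phosphate buffer pH 6.5, stirred 1 h, shaken 2 h and left overnight. Filtrates were quantified by UV or HPLC-UV against a four-point calibration, in duplicate. Values are in μg/ml, with a lower-bound value when >80% dissolved.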

The next data set relates to CYP3A4. The conditions noted are these: human, 24 h.

Procedure for CYP3A4: Human cryopreserved hepatocytes (Life Technologies, Carlsbad, USA) were thawed and cultured in collagen I coated 96-well plates with a density of 52,000 cells/well. After attachment, medium was changed and cells were pre-cultured overnight in hepatocyte maintenance medium (HMM; Lonza, Switzerland).
Test compounds were dosed to the cells next morning at an indicated concentration (up to 10 μM) in HMM culture media containing gentamycin and a constant 0.1% DMSO. Similarly, dilutions of the positive inducer compounds omeprazole (prototypical inducer of human CYP1A2; final concentrations: 1 and 10 μM), phenobarbital (prototypical inducer of human CYP2B6; final concentrations: 100 and 1000 μM) and rifampicin (prototypical inducer of human CYP3A4; final concentrations: 1 and 10 μM) were prepared from 1000 fold DMSO stock solutions in HMM containing gentamycin. Medium change was then performed and cells were exposed for 24 hours to test compounds, positive inducer compounds, or vehicle (0.1% DMSO), respectively.
At the end of the compound exposure period, medium was removed and cells lysed using 100 μL/well MagNA Pure LC RNA isolation tissue lysis buffer (Roche Diagnostics AG, Rotkreuz, Switzerland). Plates were then sealed and frozen at −80° C. until further workup.
mRNA isolation was performed using the MagNA Pure 96 system (Roche Diagnostics AG, Rotkreuz, Switzerland) and the respective cellular RNA large volume kit (Roche Diagnostics AG, Rotkreuz, Switzerland) from thawed samples diluted 1:1 with PBS. The volume of the cell lysis and an elution volume of 100 μL were used. 20 μL of the resulting mRNA suspension was then used for reverse transcription using 20 μL of the transcript or first stand cDNA synthesis kit (Roche prime Supply, Mannheim, Germany). The resulting cDNA was diluted with 40 μL of H2O before using for qRT-PCR. qRT-PCR was performed by using the forward and the reverse primer, the corresponding UPL (all from Microsynth, Balgach, Switzerland) and the Taqman Fast advanced master mix (Applied Biosystems), on an ABI 7900 machine (Applied Biosystems).
qRT-PCR Ct-values for the respective P450s were put into relation to the Ct-value of RN18S1 (microsynth, Balgach, Switzerland) of the same sample. Doing so, a respective Δct-value was calculated. Using the average of all Δct-values for the vehicle control samples, a ΔΔct-value was calculated for each sample (ΔΔct-value(sample)=Δct-value(sample)−average of Δct-value of all vehicle controls). The fold induction of the respective sample was calculated as 2^(−ΔΔct). The individual fold induction values were then averaged per treatment condition (usually n=3 biological replicates).
Relative induction values to the respective positive inducer compound condition (10 μM omeprazole for CYP1A2; 1000 μM Phenobarbital for CYP2B6; 10 μM rifampicin for CYP3A4) were then calculated from the fold induction values as follows: Relative induction(%)=100×(T−V)/(P−V)
T: fold induction of test compound condition
P: fold induction of positive inducer compound
V: fold induction of vehicle controls

As for `COC(=O)C1=C(C)NC(c2ncc(F)cc2F)=N[C@H]1c1ccc(F)cc1Cl` [Bay 41-4109], in the data set on HBV, the “in vivo efficacy (HBV DNA reduction)” value is “demonstrated in vivo efficacy with HBV DNA reduction”.

Usually pEC50 stands for the negative decadic logarithm of the EC50, by convention in mol/L. A word on the CC50: it is the concentration at which the toxic effect on the cells reaches its halfway point. The solubility (thermodynamic) is the concentration in solution at equilibrium with solid. On to `COC(=O)C1=C(CN2C3COCC2CC(CC(=O)O)C3)NC(c2nccs2)=N[C@H]1c1ccc(F)cc1Cl` (stereo partly drawn) [Example 24, (R)-6-(7-Carboxymethyl-3-oxa-9-aza-bicyclo[3.3.1]non-9-ylmethyl)-4-(2-chloro-4-fluoro-phenyl)-2-thiazol-2-yl-1,4-dihydro-pyrimidine-5-carboxylic acid methyl ester], for which the pEC50 in data set [1] is 7.89. In data set [2], the CC50 at 5 days was > 100000 nM. Moreover, the “Selectivity index (CC50/EC50)” value with HepDE19 cells is >7692. Besides, the CLh in data set [3] is 2.6 mL/min/kg. Further, the solubility (thermodynamic) in data set [4] is > 621 µg/mL. Moreover, the “% of Positive control (10 μM Rifampicin)” value in the data set with CYP3A4 came out at 29%.

On to `CCOC(=O)C1=C(CN2C3COCC2CC(CC(=O)O)C3)NC(c2nccs2)=N[C@H]1c1ccc(F)cc1Cl` (stereo partly drawn) [Example 26, (R)-6-(7-Carboxymethyl-3-oxa-9-aza-bicyclo[3.3.1]non-9-ylmethyl)-4-(2-chloro-4-fluoro-phenyl)-2-thiazol-2-yl-1,4-dihydro-pyrimidine-5-carboxylic acid ethyl ester], for which the pEC50 in data set [1] is 7.89. The same compound gave a CC50 at 5 days in data set [2] of 68000 nM. Also, in the data set on HepDE19 cells, the “Selectivity index (CC50/EC50)” value was found to be 5231. Also, in data set [3], the CLh was determined as 3.5 mL/min/kg. Further, the solubility (thermodynamic) in data set [4] was 470 µg/mL (≈ 835 µM). Further, in the data set with CYP3A4, the “% of Positive control (10 μM Rifampicin)” value is on record as 36%.

Regarding `COC(=O)C1=C(CN2C3COCC2CC(NC(C)=O)C3)NC(c2nccs2)=N[C@H]1c1ccc(F)cc1Cl` (stereo partly drawn) [Example 35, (R)-6-(7-Acetylamino-3-oxa-9-aza-bicyclo[3.3.1]non-9-ylmethyl)-4-(2-chloro-4-fluoro-phenyl)-2-thiazol-2-yl-1,4-dihydro-pyrimidine-5-carboxylic acid methyl ester], in data set [1], the pEC50 is 8.22. This compound registered a CC50 at 5 days in data set [2] of 50000 nM. Besides, in the data set on HepDE19 cells, the “Selectivity index (CC50/EC50)” value is 7813. Further, the CLh in data set [3] worked out at 6.4 mL/min/kg. In the data set with CYP3A4, the “% of Positive control (10 μM Rifampicin)” value worked out at 20%.

Consider `COC(=O)C1=C(CN2[C@@H]3COC[C@H]2C[C@@H](NS(N)(=O)=O)C3)NC(c2nccs2)=N[C@H]1c1ccc(F)cc1Cl` [Example 56, Methyl (4R)-4-(2-chloro-4-fluoro-phenyl)-6-[[(1R,5S)-7-endo-(sulfamoylamino)-3-oxa-9-azabicyclo[3.3.1]nonan-9-yl]methyl]-2-thiazol-2-yl-1,4-dihydropyrimidine-5-carboxylate], for which the pEC50 in data set [1] was 8.36. This compound also returned a CC50 at 5 days in data set [2] of 43000 nM. Also, the “Selectivity index (CC50/EC50)” value in the data set on HepDE19 cells stood at 9766. This compound also registered a CLh in data set [3] of 6.1 mL/min/kg. Besides, the “% of Positive control (10 μM Rifampicin)” value in the data set with CYP3A4 was 23%.

As for `CCOC(=O)C1=C(CN2[C@@H]3COC[C@H]2C[C@H](CC(=O)O)C3)NC(c2nccs2)=N[C@H]1c1cccc(F)c1Cl` [Example 66, Exo-2-[(1S,5R)-9-[[(4R)-4-(2-chloro-3-fluoro-phenyl)-5-ethoxycarbonyl-2-thiazol-2-yl-1,4-dihydropyrimidin-6-yl]methyl]-3-oxa-9-azabicyclo[3.3.1]nonan-7-yl]acetic acid], the pEC50 in data set [1] is 8.44. For the same compound, the CLh in data set [3] was 3.2 mL/min/kg. Besides, in data set [4], the thermodynamic solubility worked out at 390 µg/mL (≈ 693 µM). In addition, the “% of Positive control (10 μM Rifampicin)” value with CYP3A4 is recorded as 6.2%.

For `CCOC(=O)C1=C(CN2[C@@H]3COC[C@H]2C[C@H](CC(=O)O)C3)NC(c2nccs2)=N[C@H]1c1cccc(F)c1Br` [Example 68, Exo-2-[(1S,5R)-9-[[(4R)-4-(2-bromo-3-fluoro-phenyl)-5-ethoxycarbonyl-2-thiazol-2-yl-1,4-dihydropyrimidin-6-yl]methyl]-3-oxa-9-azabicyclo[3.3.1]nonan-7-yl]acetic acid], the pEC50 in data set [1] was 8.42. For the same compound, the CLh in data set [3] amounted to 3.5 mL/min/kg. Further, in data set [4], the solubility (thermodynamic) turned out to be 320 µg/mL (≈ 527 µM). In addition, the “% of Positive control (10 μM Rifampicin)” value with CYP3A4 stood at 7.7%.

In the case of `CCOC(=O)C1=C(CN2[C@@H]3COC[C@H]2C[C@H](CC(=O)O)C3)NC(c2nccs2)=N[C@H]1c1ccc(F)c(F)c1Cl` [Example 69, Exo-2-[(1S,5R)-9-[[(4R)-4-(2-chloro-3,4-difluoro-phenyl)-5-ethoxycarbonyl-2-thiazol-2-yl-1,4-dihydropyrimidin-6-yl]methyl]-3-oxa-9-azabicyclo[3.3.1]nonan-7-yl]acetic acid], in data set [1], the negative logarithm of the EC50 (pEC50) is 8.51. Also, the CC50 at 5 days in data set [2] was > 100000 nM. In addition, the “Selectivity index (CC50/EC50)” value with HepDE19 cells is reported as >32258. Also, in data set [3], the CLh was 2.4 mL/min/kg. Further, the solubility (thermodynamic) in data set [4] came to 203 µg/mL (≈ 349 µM). Besides, the “% of Positive control (10 μM Rifampicin)” value in the data set on CYP3A4 is listed as 21%.

For `COC(=O)C1=C(CN2[C@@H]3COC[C@H]2C[C@H](CC(=O)O)C3)NC(c2nccs2)=N[C@H]1c1ccc(F)c(F)c1Cl` [Example 73, Exo-2-[(1S,5R)-9-[[(4R)-4-(2-chloro-3,4-difluoro-phenyl)-5-methoxycarbonyl-2-thiazol-2-yl-1,4-dihydropyrimidin-6-yl]methyl]-3-oxa-9-azabicyclo[3.3.1]nonan-7-yl]acetic acid], in data set [1], the pEC50 was 8.52. Also, the CC50 at 5 days in data set [2] was 72000 nM. Moreover, the “Selectivity index (CC50/EC50)” value in the data set with HepDE19 cells came to 24083. This compound came in with a CLh in data set [3] of 3.6 mL/min/kg. The solubility (thermodynamic) in data set [4] is > 654 µg/mL. The “% of Positive control (10 μM Rifampicin)” value in the data set on CYP3A4 amounted to 21%.

Regarding `CCOC(=O)C1=C(CN2[C@@H]3COC[C@H]2C[C@H](CC(=O)O)C3)NC(c2nccs2)=N[C@H]1c1ccc(F)c(F)c1Br` [Example 80, Exo-2-[(1S,5R)-9-[[(4R)-4-(2-bromo-3,4-difluoro-phenyl)-5-ethoxycarbonyl-2-thiazol-2-yl-1,4-dihydropyrimidin-6-yl]methyl]-3-oxa-9-azabicyclo[3.3.1]nonan-7-yl]acetic acid], in data set [1], the pEC50 is 8.77. Further, in data set [2], half-maximal cytotoxicity (CC50 at 5 days) was put at 38000 nM. The “Selectivity index (CC50/EC50)” value in the data set on HepDE19 cells is listed as 22394. Moreover, the CLh in data set [3] stood at 4.6 mL/min/kg. The thermodynamic solubility in data set [4] was found to be 221 µg/mL (≈ 353 µM). Moreover, the “% of Positive control (10 μM Rifampicin)” value in the data set on CYP3A4 is given as 35%.

On to `COC(=O)C1=C(CN2[C@@H]3C[C@H](CC(=O)O)C[C@H]2C(F)(F)C3)NC(c2nccs2)=N[C@H]1c1cccc(F)c1Cl` [Example 88, 2-[(1R,3S,5S)-8-[[(4R)-4-(2-chloro-3-fluoro-phenyl)-5-methoxycarbonyl-2-thiazol-2-yl-1,4-dihydropyrimidin-6-yl]methyl]-6,6-difluoro-8-azabicyclo[3.2.1]octan-3-yl]acetic acid], for which the pEC50 in data set [1] was 8.89. In addition, in data set [2], the CC50 at 5 days came to 52000 nM. In addition, in the data set with HepDE19 cells, the “Selectivity index (CC50/EC50)” value was determined as 39662. The same compound gave a CLh in data set [3] of 0.2 mL/min/kg. This compound had a thermodynamic solubility in data set [4] of 120 µg/mL (≈ 211 µM). Besides, the “% of Positive control (10 μM Rifampicin)” value in the data set with CYP3A4 was determined as 39%.

`COC(=O)C1=C(CN2[C@@H]3C[C@H](CC(=O)O)C[C@H]2C(F)(F)C3)NC(c2nccs2)=N[C@H]1c1ccccc1Cl` [Example 90, 2-[(1R,3S,5S)-8-[[(4R)-4-(2-chlorophenyl)-5-methoxycarbonyl-2-thiazol-2-yl-1,4-dihydropyrimidin-6-yl]methyl]-6,6-difluoro-8-azabicyclo[3.2.1]octan-3-yl]acetic acid]: in data set [1], the pEC50 was 8.46. For the same compound, the CLh in data set [3] came to 1.5 mL/min/kg. Besides, the solubility (thermodynamic) in data set [4] was found to be 230 µg/mL (≈ 417 µM). Besides, the “% of Positive control (10 μM Rifampicin)” value in the data set on CYP3A4 worked out at 37%.

For `COC(=O)C1=C(CN2C3COCC2C(F)(F)[C@H](CC(=O)O)C3)NC(c2nccs2)=N[C@H]1c1ccc(F)cc1Cl` (stereo partly drawn) [Example 126, 2-[(7S)-9-[[(4R)-4-(2-chloro-4-fluoro-phenyl)-5-methoxycarbonyl-2-thiazol-2-yl-1,4-dihydropyrimidin-6-yl]methyl]-6,6-difluoro-3-oxa-9-azabicyclo[3.3.1]nonan-7-yl]acetic acid], in data set [1], the pEC50 is 7.99. Further, the CC50 at 5 days in data set [2] was > 100000 nM. The “Selectivity index (CC50/EC50)” value in the data set with HepDE19 cells is recorded as >9709. In addition, the CLh in data set [3] was found to be 0 mL/min/kg. Moreover, the thermodynamic solubility in data set [4] was > 605 µg/mL. Moreover, the “% of Positive control (10 μM Rifampicin)” value in the data set with CYP3A4 worked out at 17%.

For the compound `COC(=O)C1=C(CN2C3COCC2CC(CC(=O)O)C3)NC(c2nccs2)=N[C@H]1c1ccc(F)c(F)c1Cl` (stereo partly drawn) [Example 135, Endo-2-[9-[[(4R)-4-(2-chloro-3,4-difluoro-phenyl)-5-methoxycarbonyl-2-thiazol-2-yl-1,4-dihydropyrimidin-6-yl]methyl]-3-oxa-9-azabicyclo[3.3.1]nonan-7-yl]acetic acid], the pEC50 in data set [1] is 8.19. For the same compound, the CC50 at 5 days in data set [2] is > 100000 nM. For the same compound, in the data set with HepDE19 cells, the “Selectivity index (CC50/EC50)” value is >15385. Besides, the CLh in data set [3] is 4.2 mL/min/kg. Further, the solubility (thermodynamic) in data set [4] was determined as 533 µg/mL (≈ 940 µM). Also, the “% of Positive control (10 μM Rifampicin)” value in the data set on CYP3A4 was determined as 27%.
